11 compounds from patent publication US6706740B2, “Fungicidal heterocyclic aromatic amides and their compositions, methods of use and preparation” (Dow AgroSciences LLC, priority 1999, dated 2004) can be followed below.

Like-named read-outs stand apart in the source and are kept apart here.

What is called inhibition is the share of the control response that was lost under treatment.

For assay [1], the system named is Puccinia recondita—PUCCRT. Briefly: Brown Rust of Wheat, in vivo whole plant, 24 Hour Protectant. To be noted: control of fungal infection vs untreated plants; for pest or weed control at 100 ppm: Puccinia, read-out: PUCCRT in vivo 1 Day Protectant.
In assay [2] the test system is Magnaporthe grisea (Pyricularia oryzae—PYRIOR). Briefly: microbe, parasite or virus in culture. The class given is cell-based. To be noted: Pyricularia oryzae, read-out: PYRIOR in vitro Growth Inhibition.
The subject of another assay is Erysiphe graminis—ERYSGT. Nature of the assay: Powdery Mildew of Wheat, in vivo whole plant, 24 Hour Protectant. To be noted: control of fungal infection vs untreated plants; for pest or weed control at 100 ppm: Erysiphe, read-out: ERYSGT in vivo 1 Day Protectant.
Assay [3] relates to Stagonospora nodorum (Leptosphaeria nodorum—LEPTNO). Briefly: In vitro fungal growth inhibition, Stagonospora nodorum (LEPTNO). The class given is cell-based. To be noted: Leptosphaeria, read-out: LEPTNO in vitro Growth Inhibition.
Assay [4] relates to Phytophthora infestans (PHYTIN). Nature of the assay: microbe, parasite or virus in culture. The class given is cell-based. To be noted: Phytophthora infestans, read-out: PHYTIN in vitro Growth Inhibition.
Assay [5] deals with Phytophthora infestans—PHYTIN. Briefly: whole plant or invertebrate. To be noted: Phytophthora, in Solanum lycopersicum, 24 h, read-out: PHYTIN in vivo 1 Day Protectant. It is filed as in vivo.
Assay [6] relates to Mycosphaerella graminicola (Septoria tritici—SEPTTR). Briefly: In vitro fungal growth inhibition, Mycosphaerella graminicola (SEPTTR). The class given is cell-based. To be noted: Zymoseptoria tritici, read-out: SEPTTR in vitro Growth Inhibition.
Assay [7] relates to Leptosphaeria nodorum—LEPTNO. Nature of the assay: Glume Blotch of Wheat, in vivo whole plant, 24 Hour Protectant. To be noted: Leptosphaeria, control of fungal infection vs untreated plants, read-out: LEPTNO in vivo 1 Day Protectant.
The test system of a further assay is Ustilago maydis (USTIMA). Nature of the assay: microbe, parasite or virus in culture. It is filed as cell-based. To be noted: Mycosarcoma maydis, read-out: USTIMA in vitro Growth Inhibition.
Another assay deals with Septoria tritici—SEPTTR. Briefly: Leaf Blotch of Wheat, in vivo whole plant, 24 Hour Protectant. To be noted: control of fungal infection vs untreated plants; for pest or weed control at 100 ppm: Zymoseptoria tritici, 24 h, read-out: SEPTTR in vivo 1 Day Protectant.
The subject of assay [8] is Rhizoctonia solani (RHIZSO). Briefly: microbe, parasite or virus in culture. It is filed as cell-based. To be noted: Rhizoctonia solani, read-out: RHIZSO in vitro Growth Inhibition.
[9] abbreviates: 100 ppm spray, 24 hour protectant, wheat.
Where [10] appears, read: wheat plants sprayed at 100 ppm, inoculated after 24 hours.
The mark [11] stands for this setting: 100 ppm spray, wheat, 24 hour protectant.

On to `CCCCC1(C)CC(NC(=O)c2nccc(OC)c2O)CC(C)(C)C1` (stereo not shown) [Compound 253], for which the pest or weed control at 100 ppm is 25 to 74% in [1] (setting [9]); less than 25% in the assay on Erysiphe graminis—ERYSGT (setting [9]); less than 25% in assay [5]; 25 to 74% in assay [7] (setting [9]); 25 to 74% with Septoria tritici—SEPTTR (setting [9]). In addition, the inhibition at 25 ppm was greater than 80% in assay [2]; greater than 80% in [3] (25 ppm in growth medium); greater than 80% in assay [4]; greater than 80% in assay [6] (25 ppm in growth medium); less than 80% with Ustilago maydis (USTIMA); less than 80% in assay [8].
`N#Cc1ccc(Oc2cccc(NC(=O)c3nc(Br)ccc3O)c2)cc1` [Compound 500]: the pest or weed control at 100 ppm in assay [1] (setting [10]) is less than 25%; in the assay on Erysiphe graminis—ERYSGT (setting [10]) it was less than 25%; in assay [5], less than 25%; in [7] (setting [10]), less than 25%; in the assay on Septoria tritici—SEPTTR (setting [10]) it was 25 to 74%. The inhibition at 25 ppm (in assay [2]; in assay [3] (25 ppm in the growth medium); in assay [4]; in [6] (25 ppm in the growth medium); in the assay with Ustilago maydis (USTIMA); in assay [8]) was less than 80% throughout.
Take `CC(=O)Oc1cccnc1C(=O)Nc1ccc(Oc2cccc(C(F)(F)F)c2)cc1` [Compound 570]: the pest or weed control at 100 ppm in assay [1] (setting [10]) is less than 25%; in assay [5], less than 25%; in [7] (setting [10]), 25 to 74%; in the assay with Septoria tritici—SEPTTR (setting [10]) it was 25 to 74%. Besides, the inhibition at 25 ppm in [2] is greater than 80%; in assay [3] (25 ppm in the growth medium) it was less than 80%; in assay [4], less than 80%; in [6] (25 ppm in the growth medium), less than 80%; with Ustilago maydis (USTIMA), less than 80%; in assay [8], less than 80%. The “ERYSGT in vivo 1 Day Protectant” value in the assay on Erysiphe graminis—ERYSGT (setting [10]) was “+ +”.
Turning to `CCCCCCCCCCCCCCCCCC(=O)O[C@H]1[C@H](C)OC(=O)[C@@H](NC(=O)c2nccc(OC)c2O)COC(=O)[C@@H]1Cc1ccccc1` [Compound 398], the pest or weed control at 100 ppm is 25 to 74% in assay [1] (setting [11]); less than 25% with Erysiphe graminis—ERYSGT (setting [11]); less than 25% in assay [5]; less than 25% in assay [7] (setting [11]); less than 25% in the assay with Septoria tritici—SEPTTR (setting [11]). Moreover, the inhibition at 25 ppm in assay [2] was greater than 80%; in [3] (25 ppm in growth medium), greater than 80%; in assay [4], less than 80%; in [6] (25 ppm in growth medium), greater than 80%; in the assay on Ustilago maydis (USTIMA) it was less than 80%; in [8] it was less than 80%.
Take `O=C(Nc1cccc(Oc2ccc(C(F)(F)F)cc2)c1)c1nc(Br)ccc1O` [Compound 496]: the pest or weed control at 100 ppm in assay [1] (setting [10]) is 25 to 74%; in the assay on Erysiphe graminis—ERYSGT (setting [10]), less than 25%; in assay [5] it was less than 25%; in assay [7] (setting [10]), less than 25%; in the assay on Septoria tritici—SEPTTR (setting [10]), 25 to 74%. Besides, the inhibition at 25 ppm (in assay [2]; in assay [3] (25 ppm in the growth medium); in [4]; in [6] (25 ppm in the growth medium); with Ustilago maydis (USTIMA); in assay [8]) was less than 80% each time.
As to `COC(=O)C(COC(=O)C(C)Cc1ccccc1)NC(=O)c1nccc(OC)c1O` (stereo not shown) [Compound 345], the pest or weed control at 100 ppm in [1] (setting [11]) is 25 to 74%; in the assay with Erysiphe graminis—ERYSGT (setting [11]), less than 25%; in [5], less than 25%; in assay [7] (setting [11]), less than 25%; with Septoria tritici—SEPTTR (setting [11]) it was less than 25%. Moreover, the inhibition at 25 ppm (in [2]; in assay [3] (25 ppm in growth medium); in [4]; in assay [6] (25 ppm in growth medium); in the assay with Ustilago maydis (USTIMA); in assay [8]) was less than 80% throughout.
Regarding `COc1ccnc(C(=O)NC2CC(C)(C)C(Oc3cc(C(F)(F)F)cc(C(F)(F)F)n3)C(C)(C)C2)c1O` (stereo not shown) [Compound 272], the pest or weed control at 100 ppm was less than 25% in [1] (setting [9]), less than 25% in the assay with Erysiphe graminis—ERYSGT (setting [9]), less than 25% in assay [5] and 25 to 74% in assay [7] (setting [9]). For the same compound, the inhibition at 25 ppm in assay [2] was less than 80%; in assay [3] (25 ppm in growth medium), less than 80%; in assay [4], less than 80%; in [6] (25 ppm in growth medium), greater than 80%; in the assay on Ustilago maydis (USTIMA), less than 80%; in [8], less than 80%. The “SEPTTR in vivo 1 Day Protectant” value in the assay with Septoria tritici—SEPTTR (setting [9]) was “+ +”.
For `O=C(Nc1ccc(Oc2ccccc2C(F)(F)F)cc1)c1nc(Br)ccc1O` [Compound 497], the pest or weed control at 100 ppm is 25 to 74% in [1] (setting [10]); less than 25% in the assay on Erysiphe graminis—ERYSGT (setting [10]); less than 25% in assay [5]; 25 to 74% in assay [7] (setting [10]); 25 to 74% with Septoria tritici—SEPTTR (setting [10]). Also, the inhibition at 25 ppm (in assay [2]; in assay [3] (25 ppm in the growth medium); in [4]; in assay [6] (25 ppm in the growth medium); in the assay with Ustilago maydis (USTIMA); in [8]) was less than 80% throughout.
Consider `COc1ccnc(C(=O)N[C@H]2C[C@@H](O[Si](C)(C)C(C)(C)C)O[C@@H](C)[C@@H]2OCc2ccccc2)c1O` [Compound 328], for which the pest or weed control at 100 ppm in [1] (setting [11]) was less than 25%; with Erysiphe graminis—ERYSGT (setting [11]), less than 25%; in assay [5], less than 25%; in [7] (setting [11]), 25 to 74%; in the assay with Septoria tritici—SEPTTR (setting [11]), 25 to 74%. Also, the inhibition at 25 ppm was less than 80% in assay [2]; less than 80% in assay [3]; greater than 80% in [4]; less than 80% in [6]; less than 80% with Ustilago maydis (USTIMA); less than 80% in [8].
In the case of `COc1ccnc(C(=O)N[C@@H](COCc2ccccc2)C(=O)O[C@@H](C)[C@H](OC(=O)C(C)C)[C@@H](Cc2ccccc2)C(=O)OCc2ccccc2)c1O` [Compound 342], the “PUCCRT in vivo 1 Day Protectant” value in assay [1] (setting [11]) is given as “+ +”. Further, the inhibition at 25 ppm in assay [2] was less than 80%; in assay [3] (25 ppm in growth medium), less than 80%; in [4] it was less than 80%; in assay [6] (25 ppm in growth medium), less than 80%; in the assay with Ustilago maydis (USTIMA) it was greater than 80%; in assay [8] it was less than 80%. Moreover, the pest or weed control at 100 ppm with Erysiphe graminis—ERYSGT (setting [11]) is 25 to 74%; in assay [5] it was less than 25%; in assay [7] (setting [11]) it was 25 to 74%; in the assay with Septoria tritici—SEPTTR (setting [11]), 25 to 74%.
For `COC(=O)C(COC(=O)C(COC(=O)C(C)C)Cc1ccccc1)NC(=O)c1nccc(OC)c1OC(C)=O` (stereo not shown) [Compound 587], the pest or weed control at 100 ppm is 25 to 74% in [1] (setting [10]); less than 25% in the assay with Erysiphe graminis—ERYSGT (setting [10]); less than 25% in assay [5]; 25 to 74% in assay [7] (setting [10]); 25 to 74% in the assay with Septoria tritici—SEPTTR (setting [10]). Besides, the inhibition at 25 ppm (in [2]; in assay [3] (25 ppm in the growth medium); in assay [4]; in [6] (25 ppm in the growth medium); with Ustilago maydis (USTIMA); in assay [8]) was less than 80% throughout.
